Laboratory results reported in ChEMBL document CHEMBL3885881, “DrugMatrix”.

Organism: Rattus norvegicus
Assay: DrugMatrix - Regimen: Daily Repeat
Assay type: toxicity, organism-based, Sprague-Dawley
Parameters: regimen Daily Repeat, gender Male, age 6-8 weeks
Conditions: in vivo, po, route oral GAVAGE, vehicle .5 % CMC; for ABSOLUTE BASOPHIL / ABSOLUTE EOSINOPHIL / ABSOLUTE LYMPHOCYTE / ABSOLUTE MONOCYTE / ABSOLUTE SEGMENTED NEUTROPHIL / BASOPHIL / EOSINOPHIL / ERYTHROCYTE COUNT / HEMATOCRIT / HEMOGLOBIN / LEUKOCYTE COUNT / LYMPHOCYTE / MEAN CORPUSCULAR HEMOGLOBIN / MEAN CORPUSCULAR HEMOGLOBIN CONCENTRATION / MEAN CORPUSCULAR VOLUME / MONOCYTE / NEUTROPHIL / NUCLEATED RED BLOOD CELLS / PLATELET COUNT: tissue Blood; for ALANINE AMINOTRANSFERASE / ALBUMIN / ALKALINE PHOSPHATASE / ASPARTATE AMINOTRANSFERASE / BLOOD UREA NITROGEN / CARBON DIOXIDE / CHLORIDE / CHOLESTEROL / CREATINE PHOSPHOKINASE / CREATININE / GLUCOSE / LACTATE DEHYDROGENASE / LIPASE / PHOSPHORUS / POTASSIUM / SODIUM / TOTAL BILIRUBIN / TOTAL PROTEIN / URIC ACID: tissue Plasma
[1] = 8 mg/kg, 72 h, dose level High, time 3 day
[2] = 8 mg/kg, 120 h, dose level High, time 5 day
[3] = […], 72 h, dose 2.1 mg/Kg, dose level Low, time 3 day
[4] = […], 120 h, dose 2.1 mg/Kg, dose level Low, time 5 day

C=C1CC[C@H](O)C/C1=C/C=C1\CCC[C@]2(C)[C@@H]([C@H](C)CCCC(C)C)CC[C@@H]12 [CHOLECALCIFEROL]
ABSOLUTE BASOPHIL [1]: 0 CELLS/uL | ABSOLUTE EOSINOPHIL [1]: 42 CELLS/uL | ABSOLUTE LYMPHOCYTE [1]: 8592.67 CELLS/uL | ABSOLUTE MONOCYTE [1]: 336 CELLS/uL | ABSOLUTE SEGMENTED NEUTROPHIL [1]: 5029.33 CELLS/uL | BASOPHIL [1]: 0% | EOSINOPHIL [1]: 0.33% | ERYTHROCYTE COUNT [1]: 5.75 x10E6/uL | HEMATOCRIT [1]: 36.93% | HEMOGLOBIN [1]: 14.13 G/DL | LEUKOCYTE COUNT [1]: 14 x10E3/uL | LYMPHOCYTE [1]: 61.67% | MEAN CORPUSCULAR HEMOGLOBIN [1]: 24.7 pg | MEAN CORPUSCULAR HEMOGLOBIN CONCENTRATION [1]: 38.27 G/DL | MEAN CORPUSCULAR VOLUME [1]: 64.53 fL | MONOCYTE [1]: 2.33% | NEUTROPHIL [1]: 35.67% | NUCLEATED RED BLOOD CELLS [1]: 0.33 /100WBC | PLATELET COUNT [1]: 1172.33 x10E3/uL | ALANINE AMINOTRANSFERASE [1]: 38.67 u/L | ALBUMIN [1]: 4 G/DL | ALKALINE PHOSPHATASE [1]: 218 u/L | ASPARTATE AMINOTRANSFERASE [1]: 93 u/L | BLOOD UREA NITROGEN [1]: 15.67 mg/dL | CARBON DIOXIDE [1]: 25 mmol/L | CHLORIDE [1]: 99.67 MEQ/L | CHOLESTEROL [1]: 85.33 mg/dL | CREATINE PHOSPHOKINASE [1]: 273 u/L | CREATININE [1]: 0.19 mg/dL | GLUCOSE [1]: 119.67 mg/dL | LACTATE DEHYDROGENASE [1]: 381 u/L | LIPASE [1]: 8.33 u/L | PHOSPHORUS [1]: 12.67 mg/dL | POTASSIUM [1]: 6.05 MEQ/L | SODIUM [1]: 144.53 MEQ/L | TOTAL BILIRUBIN [1]: 0.1 mg/dL | TOTAL PROTEIN [1]: 6.3 G/DL | URIC ACID [1]: 1.7 mg/dL | ABSOLUTE BASOPHIL [2]: 0 CELLS/uL | ABSOLUTE EOSINOPHIL [2]: 61.33 CELLS/uL | ABSOLUTE LYMPHOCYTE [2]: 15719.67 CELLS/uL | ABSOLUTE MONOCYTE [2]: 721.33 CELLS/uL | ABSOLUTE SEGMENTED NEUTROPHIL [2]: 1931 CELLS/uL | BASOPHIL [2]: 0% | EOSINOPHIL [2]: 0.33% | ERYTHROCYTE COUNT [2]: 6.73 x10E6/uL | HEMATOCRIT [2]: 40.8% | HEMOGLOBIN [2]: 16.17 G/DL | LEUKOCYTE COUNT [2]: 18.43 x10E3/uL | LYMPHOCYTE [2]: 84.33% | MEAN CORPUSCULAR HEMOGLOBIN [2]: 24 pg | MEAN CORPUSCULAR HEMOGLOBIN CONCENTRATION [2]: 39.67 G/DL | MEAN CORPUSCULAR VOLUME [2]: 60.73 fL | MONOCYTE [2]: 4% | NEUTROPHIL [2]: 11.33% | NUCLEATED RED BLOOD CELLS [2]: 0.33 /100WBC | PLATELET COUNT [2]: 1207.33 x10E3/uL | ALANINE AMINOTRANSFERASE [2]: 32.67 u/L | ALBUMIN [2]: 3.77 G/DL | ALKALINE PHOSPHATASE [2]: 216 u/L | ASPARTATE AMINOTRANSFERASE [2]: 95.67 u/L | BLOOD UREA NITROGEN [2]: 30.67 mg/dL | CARBON DIOXIDE [2]: 29.33 mmol/L | CHLORIDE [2]: 97 MEQ/L | CHOLESTEROL [2]: 84.33 mg/dL | CREATINE PHOSPHOKINASE [2]: 292 u/L | CREATININE [2]: 0.31 mg/dL | GLUCOSE [2]: 184 mg/dL | LACTATE DEHYDROGENASE [2]: 195.33 u/L | LIPASE [2]: 8 u/L | PHOSPHORUS [2]: 12.17 mg/dL | POTASSIUM [2]: 6.13 MEQ/L | SODIUM [2]: 142.43 MEQ/L | TOTAL BILIRUBIN [2]: 0.1 mg/dL | TOTAL PROTEIN [2]: 6.37 G/DL | URIC ACID [2]: 2.97 mg/dL | ABSOLUTE BASOPHIL [3]: 0 CELLS/uL | ABSOLUTE EOSINOPHIL [3]: 0 CELLS/uL | ABSOLUTE LYMPHOCYTE [3]: 13778.67 CELLS/uL | ABSOLUTE MONOCYTE [3]: 303 CELLS/uL | ABSOLUTE SEGMENTED NEUTROPHIL [3]: 1018.33 CELLS/uL | BASOPHIL [3]: 0% | EOSINOPHIL [3]: 0% | ERYTHROCYTE COUNT [3]: 5.26 x10E6/uL | HEMATOCRIT [3]: 33.23% | HEMOGLOBIN [3]: 13.23 G/DL | LEUKOCYTE COUNT [3]: 15.1 x10E3/uL | LYMPHOCYTE [3]: 91.33% | MEAN CORPUSCULAR HEMOGLOBIN [3]: 25.17 pg | MEAN CORPUSCULAR HEMOGLOBIN CONCENTRATION [3]: 39.83 G/DL | MEAN CORPUSCULAR VOLUME [3]: 63.27 fL | MONOCYTE [3]: 2% | NEUTROPHIL [3]: 6.67% | NUCLEATED RED BLOOD CELLS [3]: 0.33 /100WBC | PLATELET COUNT [3]: 1338.67 x10E3/uL | ALANINE AMINOTRANSFERASE [3]: 64.33 u/L | ALBUMIN [3]: 4.5 G/DL | ALKALINE PHOSPHATASE [3]: 325 u/L | ASPARTATE AMINOTRANSFERASE [3]: 90.33 u/L | BLOOD UREA NITROGEN [3]: 18 mg/dL | CARBON DIOXIDE [3]: 24 mmol/L | CHLORIDE [3]: 102.33 MEQ/L | CHOLESTEROL [3]: 85.67 mg/dL | CREATINE PHOSPHOKINASE [3]: 170.67 u/L | CREATININE [3]: 0.22 mg/dL | GLUCOSE [3]: 154.33 mg/dL | LACTATE DEHYDROGENASE [3]: 246.33 u/L | LIPASE [3]: 9.33 u/L | PHOSPHORUS [3]: 15.17 mg/dL | POTASSIUM [3]: 7.26 MEQ/L | SODIUM [3]: 149.17 MEQ/L | TOTAL BILIRUBIN [3]: 0.33 mg/dL | TOTAL PROTEIN [3]: 6.3 G/DL | URIC ACID [3]: 1.63 mg/dL | ABSOLUTE BASOPHIL [4]: 0 CELLS/uL | ABSOLUTE EOSINOPHIL [4]: 46.67 CELLS/uL | ABSOLUTE LYMPHOCYTE [4]: 13112 CELLS/uL | ABSOLUTE MONOCYTE [4]: 47.33 CELLS/uL | ABSOLUTE SEGMENTED NEUTROPHIL [4]: 1427.33 CELLS/uL | BASOPHIL [4]: 0% | EOSINOPHIL [4]: 0.33% | ERYTHROCYTE COUNT [4]: 5.69 x10E6/uL | HEMATOCRIT [4]: 37.6% | HEMOGLOBIN [4]: 14.5 G/DL | LEUKOCYTE COUNT [4]: 14.63 x10E3/uL | LYMPHOCYTE [4]: 89.67% | MEAN CORPUSCULAR HEMOGLOBIN [4]: 25.53 pg | MEAN CORPUSCULAR HEMOGLOBIN CONCENTRATION [4]: 38.57 G/DL | MEAN CORPUSCULAR VOLUME [4]: 66.17 fL | MONOCYTE [4]: 0.33% | NEUTROPHIL [4]: 9.67% | NUCLEATED RED BLOOD CELLS [4]: 0.33 /100WBC | PLATELET COUNT [4]: 1071 x10E3/uL | ALANINE AMINOTRANSFERASE [4]: 53 u/L | ALBUMIN [4]: 4.6 G/DL | ALKALINE PHOSPHATASE [4]: 301.33 u/L | ASPARTATE AMINOTRANSFERASE [4]: 84 u/L | BLOOD UREA NITROGEN [4]: 19.67 mg/dL | CARBON DIOXIDE [4]: 31.67 mmol/L | CHLORIDE [4]: 97.33 MEQ/L | CHOLESTEROL [4]: 72.33 mg/dL | CREATINE PHOSPHOKINASE [4]: 267.33 u/L | CREATININE [4]: 0.24 mg/dL | GLUCOSE [4]: 143.33 mg/dL | LACTATE DEHYDROGENASE [4]: 287 u/L | LIPASE [4]: 8.67 u/L | PHOSPHORUS [4]: 11.33 mg/dL | POTASSIUM [4]: 6.64 MEQ/L | SODIUM [4]: 141.97 MEQ/L | TOTAL BILIRUBIN [4]: 0.2 mg/dL | URIC ACID [4]: 1.67 mg/dL
